Measured values from US8518889B2, “Method of treating cancer with antibodies against long-form leukotriene B4 receptor BLT2” (Korea University Research & Business Foundation, priority 2007, dated 2013).

Columns and labels:
SV-HUC-1 cells = experiment: [3H]-thymidine incorporation assay; type: cell-based; conditions: 48 hr
Protocol: Cells were seed in 96-well plate at the density of 1.0×10^4/well. After 24 hr incubation in RPMI 1640 supplemented with 10% FBS, the media was replaced with RPMI 1640 containing 0.5% FBS for 12 hr. After cells were treated with different concentration BLT antagonists. Then [^3H]-thymidine (1 μCi/ml) (PerkinElmer Life Sciences) was added at 12 hr after antagonists treatment and after 36 hr of further incubation, cells were harvested on the filtermat (PerkinElmer Life Science) and filtermat was dried and packaged in the sample bag (PerkinElmer Life Science). Finally, Betaplate scint (PerkinElmer Life Science) was added to the filtermat, and the radioactivity was counted in a liquid scintillation counter (MicroBeta, Wallac/PerkinElmer). […] LY255283 inhibited proliferation by at least 50% at a concentration of 10 μM at 48 hr.

[1] = test system: acute lung injury induced by endotoxin; conditions: pigs; cited from earlier work
LNCaP cells = experiment: Hoechst 33258 staining; type: cell-based, human; conditions: 5 μM, 36 hr
Protocol: Prostate cancer cells grown in 6-well cluster dishes were stimulated with 5 μM LY255283 for 36 hr in serum free RPMI 1640. The cells were fixed for 10 min with 4% formaldehyde and stained with Hoechst 33258 (50 μg/ml) (Sigma) for 10 min at 37° C. and observed under fluorescence microscopy (Carl Zeiss).

[2] = test system: MDA-MB-231 breast cancer cells; experiment: Matrigel invasion assay; type: cell-based, human; conditions: antibody 20 μg/ml, LY255283 10 μM, 48 h
Protocol: LF-BLT2 IgG Ab were also tested to determine if they had anti-BLT2-neutralizing effect in a cancer cell invasion assay. The migration of MDA-MB-231 breast cancer cells through Matrigel matrix gel in the presence of anti-LF-BLT2 was examined. The upper chamber of transwells (8.0-μm membrane pores; Costar) were coated with 2.5 μg/ml Matrigel matrix gel (BD Biosciences) and incubated at 37° C. for 2 hr. A total of 5×10^4 cells in 100 μl of medium with 0.5% FBS were added to the upper chamber and allowed to migrate toward the bottom chamber, which contained medium with 10% FBS as a chemoattractant. MDA-MB-231 cells were stopped at 48 hr. Cells on the top surface of the membranes were removed using a cotton swab, and cells on the underside were fixed in methanol and stained with hematoxylin and eosin (H&E).

PWR-1E cells = experiment: cell counting with trypan blue; type: cell-based; conditions: 1 μM and 5 μM, serum free RPMI 1640
Protocol: The effect of LY255283 was observed by counting of cell number. The cells were grown in 6-well cluster dishes to 70% confluence with 10% FBS-supplemented medium. At day 0, the medium was replaced with serum free RPMI 1640 and cells were stimulated with DMSO or 1 μM and 5 μM LY255283. The cells were harvested at various intervals. Cells were washed with PBS and collected by brief trypsinization. Total cell number was determined by counting each sample in duplicate with a hemocytometer using trypan blue dye. The cells treated with LY255283 in serum free RPM11640 were harvested at various intervals. […] In contrast, PWR-1 E cells which expressed few level of BLT2 were not affected by LY255283.

MCF-7 cells = experiment: Western blot analysis of PARP and caspase-9; type: cell-based, human; conditions: LY255283 10 μM, epirubicin 100 ng/ml

SMILES	inhibition of thymidine incorporation / cell proliferation (SV-HUC-1 cells)	activation of neutrophils and acute lung injury induced by endotoxin [1]	nuclei condensation or fragmentation (Hoechst 33258) (LNCaP cells)	invasion activity [2]	number of PWR-1E cells (PWR-1E cells)	PARP cleavage (MCF-7 cells)
CCCCC/C=C\C[C@@H](O)/C=C/c1cccc(C[C@@H](O)CCCCO)n1 [U75302]	not effect	–	–	–	–	–
CCc1cc(C(C)=O)c(O)cc1OCCCCCC(C)(C)c1nnn[nH]1 [LY255283, 1-[5-ethyl-2-hydroxy-4-[[6-methyl-6-(1H-tetrazol-5-yl)heptyl]oxy]phenyl]-ethanone]	–	limits activation of neutrophils and prevents acute lung injury	Nuclei condensation of fragmentation was observed	showed inhibitory activity	not affected	PARP cleavage was detectable
